Where a SMILES comes first, the peptide text is derived from it. Bridges are numbered along the chain shown (N, C = ends). [ ]: non-standard residue; d: D form. Phe(3-CN) = N#Cc1cccc(C[C@H](N)C(=O)O)c1; Phe(4-CN) = N#Cc1ccc(C[C@H](N)C(=O)O)cc1; Phe(2-OMe) = COc1ccccc1C[C@H](N)C(=O)O; Phe(3-F) = N[C@@H](Cc1cccc(F)c1)C(=O)O; Phe(4-F) = N[C@@H](Cc1ccc(F)cc1)C(=O)O; hArg = N=C(N)NCCCC[C@H](N)C(=O)O; 2Pal = N[C@@H](Cc1ccccn1)C(=O)O; 4Pal = N[C@@H](Cc1ccncc1)C(=O)O; Tic = O=C(O)[C@@H]1Cc2ccccc2CN1
Target: T1, Coagulation factor XII (Homo sapiens, UniProt P00748)
T1 sequence (P00748 whole entry): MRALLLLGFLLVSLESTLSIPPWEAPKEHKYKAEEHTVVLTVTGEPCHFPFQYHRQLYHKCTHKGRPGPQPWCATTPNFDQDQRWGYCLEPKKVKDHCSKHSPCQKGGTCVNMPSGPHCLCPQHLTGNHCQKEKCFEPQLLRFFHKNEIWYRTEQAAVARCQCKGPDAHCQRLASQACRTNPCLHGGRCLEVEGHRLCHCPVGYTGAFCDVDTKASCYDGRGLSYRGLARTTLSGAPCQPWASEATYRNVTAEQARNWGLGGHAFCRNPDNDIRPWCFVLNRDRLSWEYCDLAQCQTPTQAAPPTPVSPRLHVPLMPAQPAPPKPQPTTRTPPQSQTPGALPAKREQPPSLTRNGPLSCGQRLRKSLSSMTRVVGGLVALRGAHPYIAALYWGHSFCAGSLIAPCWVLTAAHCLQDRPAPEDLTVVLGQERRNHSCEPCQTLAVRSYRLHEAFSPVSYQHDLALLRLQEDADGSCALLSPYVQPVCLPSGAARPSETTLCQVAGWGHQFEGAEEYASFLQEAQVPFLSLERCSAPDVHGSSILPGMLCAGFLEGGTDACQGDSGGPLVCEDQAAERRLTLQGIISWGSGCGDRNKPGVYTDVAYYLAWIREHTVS
Experiment: Inhibition of human factor 12a using H-D-Pro-Phe-Arg-p-nitroanilide as chromogenic substrate assessed as liberation of p-nitroaniline measured every 5 mins for 60 min by multimode plate reader analysis

An IC50 of 470 nM was found for `CC(C)C[C@@H]1NC(=O)[C@H](Cc2ccc(O)cc2)NC(=O)CSC[C@@H](C(N)=O)NC(=O)CNC(=O)CNC(=O)[C@H](CCCNC(=N)N)NC(=O)[C@H](CC(=O)O)NC(=O)[C@H](CCCCN)NC(=O)[C@@H]2CCCN2C(=O)[C@H](CCCCNC(=N)N)NC(=O)[C@H](Cc2ccccc2)NC(=O)[C@H](CCCNC(=N)N)NC1=O` ({CH2CO}-YLRF[hArg]PKDRGGC-NH2; thioether N-12) in this work.

An IC50 of 500000 nM was found for `CC(C)C[C@@H]1NC(=O)[C@H](C)NC(=O)CSC[C@@H](C(N)=O)NC(=O)CNC(=O)CNC(=O)[C@H](CCCNC(=N)N)NC(=O)[C@H](CC(=O)O)NC(=O)[C@H](CCCCN)NC(=O)[C@@H]2CCCN2C(=O)[C@H](CCCNC(=N)N)NC(=O)[C@H](Cc2ccccc2)NC(=O)[C@H](CCCNC(=N)N)NC1=O` ({CH2CO}-ALRFRPKDRGGC-NH2; thioether N-12) in this work.

An IC50 of 120 nM was found for `CC(C)C[C@@H]1NC(=O)[C@H](Cc2ccc(O)cc2)NC(=O)CSC[C@@H](C(N)=O)NC(=O)CNC(=O)CNC(=O)[C@H](CCCNC(=N)N)NC(=O)[C@H](CC(=O)O)NC(=O)[C@H](CCCCN)NC(=O)[C@@H]2CCCN2C(=O)[C@H](CCCNC(=N)N)NC(=O)[C@H](Cc2ccncc2)NC(=O)[C@H](CCCNC(=N)N)NC1=O` ({CH2CO}-YLR[4Pal]RPKDRGGC-NH2; thioether N-12) in this work.

An IC50 of 260 nM was found for `CC(C)C[C@@H]1NC(=O)[C@H](Cc2ccc(O)cc2)NC(=O)CSC[C@@H](C(N)=O)NC(=O)CNC(=O)CNC(=O)[C@H](CCCNC(=N)N)NC(=O)[C@H](CC(=O)O)NC(=O)[C@H](CCCCN)NC(=O)[C@@H]2CCCN2C(=O)[C@H](CCCNC(=N)N)NC(=O)[C@H](Cc2ccc(O)cc2)NC(=O)[C@H](CCCNC(=N)N)NC1=O` ({CH2CO}-YLRYRPKDRGGC-NH2; thioether N-12) in this work.

An IC50 of 210000 nM was found for `CC(C)C[C@@H]1NC(=O)[C@H](C(C)C)NC(=O)CSC[C@@H](C(N)=O)NC(=O)CNC(=O)CNC(=O)[C@H](CCCNC(=N)N)NC(=O)[C@H](CC(=O)O)NC(=O)[C@H](CCCCN)NC(=O)[C@@H]2CCCN2C(=O)[C@H](CCCNC(=N)N)NC(=O)[C@H](Cc2ccccc2)NC(=O)[C@H](CCCNC(=N)N)NC1=O` ({CH2CO}-VLRFRPKDRGGC-NH2; thioether N-12) in this work.

An IC50 of 22000 nM was found for `CC(C)C[C@@H]1NC(=O)[C@H](Cc2ccc(O)cc2)NC(=O)CSC[C@@H](C(N)=O)NC(=O)CNC(=O)CNC(=O)[C@H](CCCNC(=N)N)NC(=O)[C@H](CC(=O)O)NC(=O)[C@H](CCCCN)NC(=O)[C@@H]2CCCN2C(=O)[C@H](CCCNC(=N)N)NC(=O)[C@@H]2Cc3ccccc3CN2C(=O)[C@H](CCCNC(=N)N)NC1=O` ({CH2CO}-YLR[Tic]RPKDRGGC-NH2; thioether N-12) in this work.

An IC50 of 11000 nM was found for `CC(C)C[C@@H]1NC(=O)[C@H](Cc2ccccn2)NC(=O)CSC[C@@H](C(N)=O)NC(=O)CNC(=O)CNC(=O)[C@H](CCCNC(=N)N)NC(=O)[C@H](CC(=O)O)NC(=O)[C@H](CCCCN)NC(=O)[C@@H]2CCCN2C(=O)[C@H](CCCNC(=N)N)NC(=O)[C@H](Cc2ccccc2)NC(=O)[C@H](CCCNC(=N)N)NC1=O` ({CH2CO}-[2Pal]LRFRPKDRGGC-NH2; thioether N-12) in this work.

An IC50 of 73 nM was found for `CC(C)C[C@@H]1NC(=O)[C@H](Cc2ccc(O)cc2)NC(=O)CSC[C@@H](C(N)=O)NC(=O)CNC(=O)CNC(=O)[C@H](CCCNC(=N)N)NC(=O)[C@H](CC(=O)O)NC(=O)[C@H](CCCCN)NC(=O)[C@@H]2CCCN2C(=O)[C@H](CCCNC(=N)N)NC(=O)[C@H](Cc2ccccc2)NC(=O)[C@H](CCCCNC(=N)N)NC1=O` ({CH2CO}-YL[hArg]FRPKDRGGC-NH2; thioether N-12) in this work.

An IC50 of 8100 nM was found for `CC(C)C[C@@H]1NC(=O)[C@H](Cc2ccc(C#N)cc2)NC(=O)CSC[C@@H](C(N)=O)NC(=O)CNC(=O)CNC(=O)[C@H](CCCNC(=N)N)NC(=O)[C@H](CC(=O)O)NC(=O)[C@H](CCCCN)NC(=O)[C@@H]2CCCN2C(=O)[C@H](CCCNC(=N)N)NC(=O)[C@H](Cc2ccccc2)NC(=O)[C@H](CCCNC(=N)N)NC1=O` ({CH2CO}-[Phe(4-CN)]LRFRPKDRGGC-NH2; thioether N-12) in this work.

An IC50 of 650 nM was found for `CC(C)C[C@@H]1NC(=O)[C@H](Cc2cccc(F)c2)NC(=O)CSC[C@@H](C(N)=O)NC(=O)CNC(=O)CNC(=O)[C@H](CCCNC(=N)N)NC(=O)[C@H](CC(=O)O)NC(=O)[C@H](CCCCN)NC(=O)[C@@H]2CCCN2C(=O)[C@H](CCCNC(=N)N)NC(=O)[C@H](Cc2ccccc2)NC(=O)[C@H](CCCNC(=N)N)NC1=O` ({CH2CO}-[Phe(3-F)]LRFRPKDRGGC-NH2; thioether N-12) in this work.

An IC50 of 2300 nM was found for `CC(C)C[C@@H]1NC(=O)[C@H](Cc2ccc(O)cc2)NC(=O)CSC[C@@H](C(N)=O)NC(=O)CNC(=O)CNC(=O)[C@H](CCC(N)=O)NC(=O)[C@H](CC(N)=O)NC(=O)[C@H]([C@@H](C)O)NC(=O)[C@H](C)NC(=O)[C@H](CCCCN)NC(=O)[C@H](CC(C)C)NC(=O)[C@H](CCCNC(=N)N)NC1=O` ({CH2CO}-YLRLKATNQGGC-NH2; thioether N-12) in this work.

An IC50 of 12000 nM was found for `CC(C)C[C@@H]1NC(=O)[C@H](Cc2ccncc2)NC(=O)CSC[C@@H](C(N)=O)NC(=O)CNC(=O)CNC(=O)[C@H](CCCNC(=N)N)NC(=O)[C@H](CC(=O)O)NC(=O)[C@H](CCCCN)NC(=O)[C@@H]2CCCN2C(=O)[C@H](CCCNC(=N)N)NC(=O)[C@H](Cc2ccccc2)NC(=O)[C@H](CCCNC(=N)N)NC1=O` ({CH2CO}-[4Pal]LRFRPKDRGGC-NH2; thioether N-12) in this work.

An IC50 of 400000 nM was found for `COc1ccccc1C[C@@H]1NC(=O)CSC[C@@H](C(N)=O)NC(=O)CNC(=O)CNC(=O)[C@H](CCCNC(=N)N)NC(=O)[C@H](CC(=O)O)NC(=O)[C@H](CCCCN)NC(=O)[C@@H]2CCCN2C(=O)[C@H](CCCNC(=N)N)NC(=O)[C@H](Cc2ccccc2)NC(=O)[C@H](CCCNC(=N)N)NC(=O)[C@H](CC(C)C)NC1=O` ({CH2CO}-[Phe(2-OMe)]LRFRPKDRGGC-NH2; thioether N-12) in this work.

An IC50 of 290000 nM was found for `C[C@@H]1NC(=O)[C@H](Cc2ccc(O)cc2)NC(=O)CSC[C@@H](C(N)=O)NC(=O)CNC(=O)CNC(=O)[C@H](CCCNC(=N)N)NC(=O)[C@H](CC(=O)O)NC(=O)[C@H](CCCCN)NC(=O)[C@@H]2CCCN2C(=O)[C@H](CCCNC(=N)N)NC(=O)[C@H](Cc2ccccc2)NC(=O)[C@H](CCCNC(=N)N)NC1=O` ({CH2CO}-YARFRPKDRGGC-NH2; thioether N-12) in this work.

An IC50 of 90 nM was found for `CC(C)C[C@@H]1NC(=O)[C@H](Cc2ccc(O)cc2)NC(=O)CSC[C@@H](C(N)=O)NC(=O)CNC(=O)CNC(=O)[C@H](CCCNC(=N)N)NC(=O)[C@H](CC(=O)O)NC(=O)[C@H](CCCCN)NC(=O)[C@@H]2CCCN2C(=O)[C@H](CCCNC(=N)N)NC(=O)[C@H](Cc2ccc(C#N)cc2)NC(=O)[C@H](CCCNC(=N)N)NC1=O` ({CH2CO}-YLR[Phe(4-CN)]RPKDRGGC-NH2; thioether N-12) in this work.

An IC50 of 60 nM was found for `COc1ccccc1C[C@@H]1NC(=O)[C@H](CCCNC(=N)N)NC(=O)[C@H](CC(C)C)NC(=O)[C@H](Cc2ccc(O)cc2)NC(=O)CSC[C@@H](C(N)=O)NC(=O)CNC(=O)CNC(=O)[C@H](CCCNC(=N)N)NC(=O)[C@H](CC(=O)O)NC(=O)[C@H](CCCCN)NC(=O)[C@@H]2CCCN2C(=O)[C@H](CCCNC(=N)N)NC1=O` ({CH2CO}-YLR[Phe(2-OMe)]RPKDRGGC-NH2; thioether N-12) in this work.

An IC50 of 160 nM was found for `CC(C)C[C@@H]1NC(=O)[C@H](Cc2ccc(O)cc2)NC(=O)CSC[C@@H](C(N)=O)NC(=O)CNC(=O)CNC(=O)[C@H](CCCNC(=N)N)NC(=O)[C@H](CC(=O)O)NC(=O)[C@H](CCCCN)NC(=O)[C@@H]2CCCN2C(=O)[C@H](CCCNC(=N)N)NC(=O)[C@H](Cc2cccc(C#N)c2)NC(=O)[C@H](CCCNC(=N)N)NC1=O` ({CH2CO}-YLR[Phe(3-CN)]RPKDRGGC-NH2; thioether N-12) in this work.

An IC50 of 650 nM was found for `CC(C)C[C@@H]1NC(=O)[C@H](Cc2ccc(O)cc2)NC(=O)CSC[C@@H](C(N)=O)NC(=O)CNC(=O)CNC(=O)[C@H](C)NC(=O)[C@H](CC(=O)O)NC(=O)[C@H](CCCCN)NC(=O)[C@@H]2CCCN2C(=O)[C@H](CCCNC(=N)N)NC(=O)[C@H](Cc2ccccc2)NC(=O)[C@H](CCCNC(=N)N)NC1=O` ({CH2CO}-YLRFRPKDAGGC-NH2; thioether N-12) in this work.

An IC50 of 400 nM was found for `CC(C)C[C@@H]1NC(=O)[C@H](Cc2ccc(O)cc2)NC(=O)CSC[C@@H](C(N)=O)NC(=O)CNC(=O)CNC(=O)[C@H](CCCNC(=N)N)NC(=O)[C@H](CC(=O)O)NC(=O)[C@H](C)NC(=O)[C@@H]2CCCN2C(=O)[C@H](CCCNC(=N)N)NC(=O)[C@H](Cc2ccccc2)NC(=O)[C@H](CCCNC(=N)N)NC1=O` ({CH2CO}-YLRFRPADRGGC-NH2; thioether N-12) in this work.

An IC50 of 200000 nM was found for `CC(C)C[C@@H]1NC(=O)[C@H](Cc2ccc(O)cc2)NC(=O)CSC[C@@H](C(N)=O)NC(=O)[C@H](CCCNC(=N)N)NC(=O)[C@H](Cc2ccccc2)NC(=O)[C@H](CCCNC(=N)N)NC1=O` ({CH2CO}-YLRFRC-NH2; thioether N-6) in this work.

An IC50 of 46 nM was found for `CC(C)C[C@@H]1NC(=O)[C@H](Cc2ccc(O)cc2)NC(=O)CSC[C@@H](C(N)=O)NC(=O)CNC(=O)CNC(=O)[C@H](CCCNC(=N)N)NC(=O)[C@H](CC(=O)O)NC(=O)[C@H](CCCCN)NC(=O)[C@@H]2CCCN2C(=O)[C@H](CCCNC(=N)N)NC(=O)[C@H](Cc2ccc(F)cc2)NC(=O)[C@H](CCCNC(=N)N)NC1=O` ({CH2CO}-YLR[Phe(4-F)]RPKDRGGC-NH2; thioether N-12) in this work.

Reference: ChEMBL document CHEMBL5042477, “Potent Cyclic Peptide Inhibitors of FXIIa Discovered by mRNA Display with Genetic Code Reprogramming” (J Med Chem, 2021)
